Laboratory results as given in patent US7282507B2, “Indole derivatives as selective androgen receptor modulators (SARMS)” (Janssen Pharmaceutica N.V., priority 2004, dated 2007).
“And” between values parts separate entries of the source, which are not always exact repeats. Identical values can stand only once.

Assays:
[1] = biological target: T1, androgen receptor (AdEasy+rAR, COS-7 cells) (Rattus norvegicus, UniProt P15207); test: COS-7 Whole-Cell Androgen Receptor Binding Assay, Adenovirus Transduction; conditions: for inhibition at 3 µM / % Inhibition, COS Binding: concentration of 3000 nM; for IC50: read-out: IC50 (nM), COS Binding
T1 construct: expressed in transfected cells; host or cells: COS-7 cells transduced with adenovirus AdEasy+rAR
T1 sequence (P15207 1-902): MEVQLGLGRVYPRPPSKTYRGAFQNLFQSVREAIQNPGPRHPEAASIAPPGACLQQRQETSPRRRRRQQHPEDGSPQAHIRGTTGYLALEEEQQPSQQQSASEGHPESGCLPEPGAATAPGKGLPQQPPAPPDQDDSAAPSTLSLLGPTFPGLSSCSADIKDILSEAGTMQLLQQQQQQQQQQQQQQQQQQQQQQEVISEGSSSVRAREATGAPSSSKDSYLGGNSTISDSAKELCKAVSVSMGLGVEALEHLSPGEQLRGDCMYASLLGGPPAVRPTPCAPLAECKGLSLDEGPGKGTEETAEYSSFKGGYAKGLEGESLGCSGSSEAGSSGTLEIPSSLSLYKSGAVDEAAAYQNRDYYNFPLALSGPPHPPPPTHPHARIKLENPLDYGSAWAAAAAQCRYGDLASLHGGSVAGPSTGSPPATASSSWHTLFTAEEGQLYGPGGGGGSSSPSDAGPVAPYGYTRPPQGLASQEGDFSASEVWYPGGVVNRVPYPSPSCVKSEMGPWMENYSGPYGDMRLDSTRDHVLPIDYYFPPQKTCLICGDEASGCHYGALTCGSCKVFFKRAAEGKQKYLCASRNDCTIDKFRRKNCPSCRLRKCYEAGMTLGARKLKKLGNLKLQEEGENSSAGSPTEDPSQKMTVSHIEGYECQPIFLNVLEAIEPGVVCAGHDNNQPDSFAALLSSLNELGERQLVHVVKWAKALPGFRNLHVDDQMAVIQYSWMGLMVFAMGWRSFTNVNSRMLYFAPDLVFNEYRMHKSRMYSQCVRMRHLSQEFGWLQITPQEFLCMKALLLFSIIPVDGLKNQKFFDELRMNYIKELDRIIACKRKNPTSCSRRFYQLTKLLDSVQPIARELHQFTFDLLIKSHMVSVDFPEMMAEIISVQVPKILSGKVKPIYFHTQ
Procedure, shortened: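 COS-7 cells in phenol red-free DMEM/F12 with 10% charcoal-treated FBS were transduced with AdEasy+rAR adenovirus (moi 1:50 per well), exposed to test compound in duplicate and incubated for 48 h at 37° C. Cells were then lysed in 0.5% Triton X-100 and bound radioactivity counted by scintillation.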

[2] = biological target: T2, androgen receptor (AdEasy+rAR, L929 cells) (Rattus norvegicus, UniProt P15207); test: L929 Androgen Receptor Functional Assay, Adenovirus Transduction; type: cell-based; conditions: for EC50 / % Activity, L929 androgen receptor functional assay: agonist testing; for IC50: antagonist testing with R1881; for % Inhibition, L929 androgen receptor functional assay: antagonist testing with R1881, 3000 nM; for inhibition at 3 µM: L929, antagonist testing with R1881, 3000 nM
T2 construct: expressed in transfected cells; host or cells: L929 cells transduced with adenovirus AdEasy+rAR
T2 sequence (P15207 1-902): T1 sequence (P15207 1-902)
Procedure, shortened: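 L929 cells in phenol red-free, charcoal-stripped serum medium transduced with AdEasy+rAR (moi 1:500) and exposed 48 h at 37 °C to compound alone (agonist mode) or with R1881 (antagonist mode; 2.5 nM as the 2.5× dilution).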

CC(O)(CSCC(F)(F)F)c1cc2cc([N+](=O)[O-])c(C(F)(F)F)cc2[nH]1 (centres unmarked) [Compound 171]
inhibition at 3 µM [1]: 92% | % Inhibition, COS Binding ([1]; 3 µM): 94% | IC50 [1]: 145 nM | EC50 [2]: > 8000 nM | % Activity, L929 androgen receptor functional assay ([2]; 3000 nM, 3 µM): 11% | % Activity, L929 androgen receptor functional assay ([2]; @ 8000 nM): −1 @ 8000 nM % | IC50 [2]: 366 nM | % Inhibition, L929 androgen receptor functional assay ([2]; 3 µM): 101% and 70%

COc1ccc(SCC(C)(O)c2cc3cc(Cl)c(C(F)(F)F)cc3[nH]2)cc1 (centres unmarked) [Compound 131]
inhibition at 3 µM [1]: 84% | IC50 [1]: > 1600 nM | inhibition at 3 µM [2]: -4% | % Activity, L929 androgen receptor functional assay ([2]; 3000 nM): −5%

CCCSCC(C)(O)c1cc2cc([N+](=O)[O-])c(C(F)(F)F)cc2[nH]1 (centres unmarked) [Compound 168]
inhibition at 3 µM [1]: 60% | IC50 [1]: > 3000 nM | inhibition at 3 µM [2]: 26% | % Activity, L929 androgen receptor functional assay ([2]; 3000 nM): 3%

COc1ccc(SCC(C)(O)c2cc3cc(Cl)c(C(F)(F)F)cc3n2S(C)(=O)=O)cc1 (racemic) [Compound 130]
% Inhibition, COS Binding [1]: −8% | % Activity, L929 androgen receptor functional assay ([2]; 3000 nM): −5%

CC(O)(CS(=O)(=O)c1ccc(N)cc1)c1cc2cc(Cl)c(C(F)(F)F)cc2[nH]1 (centres unmarked) [Compound 118]
inhibition at 3 µM [1]: 62% | IC50 [1]: > 1500 nM | inhibition at 3 µM [2]: 63% | EC50 [2]: > 8000 nM | % Activity, L929 androgen receptor functional assay ([2]; @ 8000 nM): −2 @ 8000 nM % | IC50 [2]: 3070 nM

CC(O)(CS(C)(=O)=O)c1cc2cc([N+](=O)[O-])c(C(F)(F)F)cc2[nH]1 (centres unmarked) [Compound 140]
% Inhibition, COS Binding ([1]; 3 µM): 51.5% | IC50 [1]: > 1500 nM | % Activity, L929 androgen receptor functional assay ([2]; 3000 nM): 0% | % Inhibition, L929 androgen receptor functional assay ([2]; 3 µM): 78%

CC(O)(CS(C)(=O)=O)c1cc2cc([N+](=O)[O-])c(C(F)(F)F)cc2[nH]1 (centres unmarked) [Compound 147]
% Inhibition, COS Binding ([1]; 3 µM): 6.1% | IC50 [1]: > 3000 nM | % Activity, L929 androgen receptor functional assay ([2]; 3000 nM): 0% | % Inhibition, L929 androgen receptor functional assay ([2]; 3 µM): 43%
